Reference: patent publication US20030175745A1, “Peptides with growth inhibitory action” (priority 2001, published 2003)
Where a SMILES comes first, the peptide text is derived from it.

Columns and labels:
[1] = system: NIH3T3-PDGF-ββ cells; assay: Growth assay with NIH3T3-PDGF-ββ cells, cell number by PicoGreen DNA; assay type: cell-based; conditions: for inhibition compared to the base medium (BITS): Example 4 (Table 2); for % of control cell growth: 5 days, BITS medium
Description: NIH 3T3 cells transfected with PDGF-ββ (a stable cell line) were obtained from Mount Sinai School of Medicine. These cells overexpress PDGF-ββ and are activated via the PDGF-R in an autocrine fashion. Cells were grown at 37° C. in Dulbecco's Modified Eagles Medium (high glucose) (DMEM) with 10% heat-inactivated fetal calf serum (FCS) with 100 units or μg/ml penicillin/streptomycin with 750 μg/ml G418 sulfate (Geneticin) selection. Cells were incubated in an atmosphere of 5% CO2, and cultures were fed twice weekly. For subcultivation, cells were allowed to attain confluence and washed twice with PBS or Hank's balanced salt solution (minus Ca^++ and Mg^++) before addition of a trypsin/EDTA solution to dislodge the cells. Cells were split anywhere from ¼ to 1/12 into a sterile T-75 Flask depending on the time desired until confluence.
To identify peptides that inhibit cell growth in culture, candidate peptides were screened in a growth assay with NIH3T3-PDGF-ββ cells. Cells were expanded in DMEM containing G418 as described above. […] Growth medium was removed and the peptide solution added (250 μl/well). Cells were incubated for 5 days without feeding prior to testing. After this time, growth of cells treated with each peptide was compared to growth in control medium (no peptide added).
Cell number was assessed by measurement of total cellular double-stranded DNA using the PicoGreen Assay Kit (Molecular Probes, Eugene, Oreg., USA, lot #6405-1). For PicoGreen analysis, cell lysates (100 μl ) were added to 100 µl of the dye solution prepared by diluting the PicoGreen dye (1:200 in 1× TE according to the manufacturer's instructions). Plates were read after five minutes in a fluorimeter (irradiated at an excitation wavelength of 485 nm). Fluorescence emission was measured at 530 nm using a CytoFluor Series 4000 (PerSeptive Biosystems, Framingham, Mass.). For correlating DNA level to cell number, a standard curve was established for the NIH3T3-PDGF-ββ cells. For analysis, DNA absorbance/emission was compared to the absorbance/emission shown by a standard curve of DNA.

[2] = system: PDGF-R; conditions: in the μM range; cited from earlier work
[3] = target: α-type PDGF-R (Homo sapiens, UniProt P16234); conditions: high concentrations; cited from earlier work
α-type PDGF-R, sequence (P16234 24-1089): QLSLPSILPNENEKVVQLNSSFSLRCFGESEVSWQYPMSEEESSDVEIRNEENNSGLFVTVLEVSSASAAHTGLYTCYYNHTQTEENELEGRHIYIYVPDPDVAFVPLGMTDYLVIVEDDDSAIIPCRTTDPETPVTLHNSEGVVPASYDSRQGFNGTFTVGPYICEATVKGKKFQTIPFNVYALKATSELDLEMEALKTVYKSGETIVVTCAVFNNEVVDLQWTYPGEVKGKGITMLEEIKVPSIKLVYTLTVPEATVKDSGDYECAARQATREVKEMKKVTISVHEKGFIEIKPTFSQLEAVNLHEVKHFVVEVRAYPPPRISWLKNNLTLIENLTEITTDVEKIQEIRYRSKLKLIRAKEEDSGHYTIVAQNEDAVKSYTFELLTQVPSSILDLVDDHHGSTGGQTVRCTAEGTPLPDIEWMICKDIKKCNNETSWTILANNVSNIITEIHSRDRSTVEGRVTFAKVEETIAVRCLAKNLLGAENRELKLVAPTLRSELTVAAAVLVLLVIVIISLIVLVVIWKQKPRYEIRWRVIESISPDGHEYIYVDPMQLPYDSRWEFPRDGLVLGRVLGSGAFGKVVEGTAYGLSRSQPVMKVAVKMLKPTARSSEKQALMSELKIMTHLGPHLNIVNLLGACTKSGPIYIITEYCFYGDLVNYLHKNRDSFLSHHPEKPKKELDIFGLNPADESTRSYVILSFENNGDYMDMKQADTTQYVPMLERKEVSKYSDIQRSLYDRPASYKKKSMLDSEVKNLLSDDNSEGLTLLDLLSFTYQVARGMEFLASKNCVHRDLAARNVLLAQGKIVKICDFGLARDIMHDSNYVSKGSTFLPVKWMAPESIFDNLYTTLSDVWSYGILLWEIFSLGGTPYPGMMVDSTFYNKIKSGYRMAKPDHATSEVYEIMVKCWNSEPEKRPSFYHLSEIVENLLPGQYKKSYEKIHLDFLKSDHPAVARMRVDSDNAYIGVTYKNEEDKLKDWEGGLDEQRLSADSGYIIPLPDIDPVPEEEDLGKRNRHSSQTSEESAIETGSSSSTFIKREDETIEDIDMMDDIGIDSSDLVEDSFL

[4] = target: PDGF β receptor (Homo sapiens, UniProt P09619); conditions: cited from earlier work
PDGF β receptor, sequence (P09619 33-1106): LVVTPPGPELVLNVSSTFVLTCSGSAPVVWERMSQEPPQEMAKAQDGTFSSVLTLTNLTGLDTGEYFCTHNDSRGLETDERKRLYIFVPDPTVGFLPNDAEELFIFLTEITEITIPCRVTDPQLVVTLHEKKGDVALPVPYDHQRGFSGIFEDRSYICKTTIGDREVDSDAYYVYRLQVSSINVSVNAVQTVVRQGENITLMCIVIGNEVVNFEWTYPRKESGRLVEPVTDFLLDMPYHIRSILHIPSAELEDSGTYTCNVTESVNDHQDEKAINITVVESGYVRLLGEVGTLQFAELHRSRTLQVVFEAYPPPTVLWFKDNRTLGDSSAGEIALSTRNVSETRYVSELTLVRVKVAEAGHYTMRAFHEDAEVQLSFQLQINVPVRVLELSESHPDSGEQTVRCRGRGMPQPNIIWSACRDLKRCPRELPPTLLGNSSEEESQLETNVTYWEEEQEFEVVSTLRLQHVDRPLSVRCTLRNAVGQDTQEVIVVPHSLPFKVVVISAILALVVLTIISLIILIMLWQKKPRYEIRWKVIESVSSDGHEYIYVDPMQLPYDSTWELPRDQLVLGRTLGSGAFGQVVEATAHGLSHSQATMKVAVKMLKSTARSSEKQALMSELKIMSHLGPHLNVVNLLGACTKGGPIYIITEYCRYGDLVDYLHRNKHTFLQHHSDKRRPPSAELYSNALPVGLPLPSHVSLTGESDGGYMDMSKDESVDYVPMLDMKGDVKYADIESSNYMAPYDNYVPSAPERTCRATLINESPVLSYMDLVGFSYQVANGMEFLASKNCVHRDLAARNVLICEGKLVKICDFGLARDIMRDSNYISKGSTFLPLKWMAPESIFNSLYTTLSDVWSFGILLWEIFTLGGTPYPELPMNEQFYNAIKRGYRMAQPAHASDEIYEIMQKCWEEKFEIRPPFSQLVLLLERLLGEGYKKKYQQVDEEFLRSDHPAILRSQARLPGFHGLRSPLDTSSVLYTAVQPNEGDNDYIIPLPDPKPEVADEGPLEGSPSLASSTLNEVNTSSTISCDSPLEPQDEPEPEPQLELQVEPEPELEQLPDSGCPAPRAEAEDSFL

Row | Compound | inhibition compared to the base medium (BITS) ([1]; 6 mM peptide) | inhibition compared to the base medium (BITS) ([1]; 12 mM peptide) | % of control cell growth ([1]; Table 2, 1 mM peptide) | % of control cell growth ([1]; Table 2, 3 mM peptide) | % of control cell growth ([1]; Table 2, 6 mM peptide) | % of control cell growth ([1]; Table 2, 12 mM peptide) | growth inhibition in the initial screen of the library [1] | further results
1 | NCCCC[C@H](NC(=O)[C@H](CCCCN)NC(=O)[C@H](CCCCN)NC(=O)[C@@H](N)CCCCN)C(=O)O [KKKK] (H-KKKK-OH) | 59% | 82% | 105% | 72% | 41% | 17% |  | inhibition of cell growth compared to control medium (BITS) ([1]; Example 3, KKKK (Bachem) 3 mM): 21%; inhibition of cell growth compared to control medium (BITS) ([1]; Example 3, KKKK (Bachem) 6 mM): 36%; % of control cell growth ([1]; Table 1, KKKK (Bachem) 3 mM): 78%; % of control cell growth ([1]; Table 1, KKKK (Bachem) 6 mM): 65%; % of control cell growth ([1]; Table 1, KKKK (Bachem) 12 mM): 39%
2 | Cc1ccc(C(=O)Nc2ccc(S(=O)(=O)O)c3cc(S(=O)(=O)O)cc(S(=O)(=O)O)c23)cc1NC(=O)c1cccc(NC(=O)Nc2cccc(C(=O)Nc3cc(C(=O)Nc4ccc(S(=O)(=O)O)c5cc(S(=O)(=O)O)cc(S(=O)(=O)O)c45)ccc3C)c2)c1 [suramin] |  |  |  |  |  |  |  | inhibition of PDGF binding to PDGF R [2]: 100%
3 | FFHPV (printed: PHE PHE HIS PRO VAL) [pentapeptide PHE PHE HIS PRO VAL, from Bachem] | 14% |  | 116% | 111% | 85% |  | inhibiting growth | inhibition compared to the base medium (BITS) ([1]; 9.5 mM peptide): 82%; % of control cell growth ([1]; Table 2, 9.5 mM peptide): 16%
4 | FFFKK (printed: PHE PHE PHE LYS LYS) [pentapeptide PHE PHE PHE LYS LYS, from Bachem] | 29% | 82% | 111% | 103% | 69% | 18% | inhibiting growth | 
5 | neomycin |  |  |  |  |  |  |  | inhibition of binding of PDGF-ββ to the α-type PDGF-R [3]: inhibited; inhibition of binding to the PDGF β receptor [4]: not able to inhibit
6 | DDEEK (printed: ASP ASP GLU GLU LYS) [pentapeptide ASP ASP GLU GLU LYS, from Bachem] | 91% | 84% | 108% | 93% | 11% | 16% | inhibiting growth | relative potency in inhibiting cell growth ([1]; 6 mM): most potent inhibitor
7 | KLMSY (printed: LYS LEU MET SER TYR) [pentapeptide LYS LEU MET SER TYR, from Bachem] | 23% | 91% | 127% | 126% | 76% | 10% | inhibiting growth | 
